Assays:
Format in all cases: ADME, organism-based
Details in all cases: in vivo
Plasma = test: Drug level in Sprague-Dawley rat plasma treated with 3FDT at 40 mg/kg, iv administered as single dose after 4 to 24 hrs by HPLC-TIC chromatography
[1] = Drug level in Sprague-Dawley rat urine treated with 3FDT at 40 mg/kg, iv administered as single dose after 24 hrs by HPLC-TIC chromatography
[2] = Drug level in Sprague-Dawley rat feces treated with 3FDT at 40 mg/kg, iv administered as single dose after 24 hrs by HPLC-TIC chromatography

Measured: Drug metabolism

CC(=O)O[C@@]12CO[C@@H]1C[C@@H](O)[C@@]1(C)C(=O)[C@H](O)C3=C(C)[C@@H](OC(=O)[C@H](O)[C@@H](NC(=O)OC(C)(C)C(F)(F)F)c4ccccc4)C[C@@](O)([C@@H](OC(=O)c4ccccc4)C12)C3(C)C (stereo partly drawn)
metabolite_detected: all assays above

— ChEMBL document CHEMBL3779870, “Differential metabolism of 3FDT and docetaxel in RLMs, rats, and HLMs” (Eur J Med Chem, 2016)
